Data from ChEMBL document CHEMBL1158870, “Antitumor agents. 180. Chemical Studies and cytotoxic evaluation of cumingianosides and cumindysoside A, antileukemic triterpene glucosides with a 14,18-cycloapotirucallane skeleton” (1997).

Legend:
MDA-MB-435 = assay: Cytotoxicity against human MDA-MB-435 cells by SRB assay; type: functional
OVCAR-8 = assay: Cytotoxicity against human OVCAR8 cells by SRB assay; type: functional
[1] = Cytotoxicity against human 786-O cells by SRB assay; type: functional; settings: 786-0
COLO 205 = assay: Cytotoxicity against human COLO205 cells by SRB assay; type: functional
UACC-62 = assay: Cytotoxicity against human UACC62 cells by SRB assay; type: functional
SK-MEL-2 = assay: Cytotoxicity against human SK-MEL-2 cells by SRB assay; type: functional
K562 = assay: Cytotoxicity against human K562 cells by SRB assay; type: functional
SW-620 = assay: Cytotoxicity against human SW620 cells by SRB assay; type: functional
SNB-19 = assay: Cytotoxicity against human SNB19 cells by SRB assay; type: functional
CCRF-CEM = assay: Cytotoxicity against human CCRF-CEM cells by SRB assay; type: functional
[2] = Cytotoxicity against human Hs 578T cells by SRB assay; type: functional
A549 = assay: Cytotoxicity against human A549 cells by SRB assay; type: functional
HCC 2998 = assay: Cytotoxicity against human HCC2998 cells by SRB assay; type: functional
[3] = Cytotoxicity against human breast cancer cells by SRB assay; type: functional; settings: Cancer cell lines
EKVX = assay: Cytotoxicity against human EKVX cells by SRB assay; type: functional
BT-549 = assay: Cytotoxicity against human BT549 cells by SRB assay; type: functional
[4] = Cytotoxicity against human HL60(TB) cells by SRB assay; type: functional, HL-60(TB); settings: HL-60
NCI-H460 = assay: Cytotoxicity against human NCI-H460 cells by SRB assay; type: functional
NCI-H322M = assay: Cytotoxicity against human NCI-H322M cells by SRB assay; type: functional
MCF7 = assay: Cytotoxicity against human MCF7 cells by SRB assay; type: functional
NCI-H226 = assay: Cytotoxicity against human NCI-H226 cells by SRB assay; type: functional
OVCAR-3 = assay: Cytotoxicity against human OVCAR-3 cells by SRB assay; type: functional
MDA-MB-231 = assay: Cytotoxicity against human MDA-MB-231 cells by SRB assay; type: functional
SNB-75 = assay: Cytotoxicity against human SNB75 cells by SRB assay; type: functional
[5] = Cytotoxicity against human CNS cancer cells by SRB assay; type: functional; settings: Cancer cell lines
DU-145 = assay: Cytotoxicity against human DU145 cells by SRB assay; type: functional
T47D = assay: Cytotoxicity against human T47D cells by SRB assay; type: functional
HOP-62 = assay: Cytotoxicity against human HOP62 cells by SRB assay; type: functional
UO-31 = assay: Cytotoxicity against human UO31 cells by SRB assay; type: functional
HOP-92 = assay: Cytotoxicity against human HOP92 cells by SRB assay; type: functional
SF-268 = assay: Cytotoxicity against human SF268 cells by SRB assay; type: functional
HT-29 = assay: Cytotoxicity against human HT29 cells by SRB assay; type: functional
U-251 = assay: Cytotoxicity against human U251 cells by SRB assay; type: functional
NSCLC = assay: Cytotoxicity against human NSCLC cells by SRB assay; type: functional
UACC-257 = assay: Cytotoxicity against human UACC257 cells by SRB assay; type: functional
[6] = Cytotoxicity against human MCF7/ADR cells by SRB assay; type: functional; settings: NCI/ADR-RES
[7] = Cytotoxicity against human renal cancer cells by SRB assay; type: functional; settings: Cancer cell lines
SR = assay: Cytotoxicity against human SR cells by SRB assay; type: functional
ACHN = assay: Cytotoxicity against human ACHN cells by SRB assay; type: functional
SN12C = assay: Cytotoxicity against human SN12C cells by SRB assay; type: functional
NCI-H23 = assay: Cytotoxicity against human NCI-H23 cells by SRB assay; type: functional
RPMI-8226 = assay: Cytotoxicity against human RPMI8226 cells by SRB assay; type: functional
HCT-116 = assay: Cytotoxicity against human HCT116 cells by SRB assay; type: functional
A498 = assay: Cytotoxicity against human A498 cells by SRB assay; type: functional
RXF 393 = assay: Cytotoxicity against human RXF393 cells by SRB assay; type: functional
[8] = Cytotoxicity against human melanoma cells by SRB assay; type: functional; settings: Melanoma cell
IGROV-1 = assay: Cytotoxicity against human IGROV1 cells by SRB assay; type: functional
OVCAR-5 = assay: Cytotoxicity against human OVCAR5 cells by SRB assay; type: functional
M14 = assay: Cytotoxicity against human M14 cells by SRB assay; type: functional
SK-MEL-5 = assay: Cytotoxicity against human SK-MEL-5 cells by SRB assay; type: functional
MDA-N = assay: Cytotoxicity against human MDA-N cells by SRB assay; type: functional
KM12 = assay: Cytotoxicity against human KM12 cells by SRB assay; type: functional
SK-MEL-28 = assay: Cytotoxicity against human SK-MEL-28 cells by SRB assay; type: functional
LOX IMVI = assay: Cytotoxicity against human LOXIMVI cells by SRB assay; type: functional
CAKI-1 = assay: Cytotoxicity against human Caki1 cells by SRB assay; type: functional
SK-OV-3 = assay: Cytotoxicity against human SKOV3 cells by SRB assay; type: functional
OVCAR-4 = assay: Cytotoxicity against human OVCAR4 cells by SRB assay; type: functional
Leukemia cell = assay: Cytotoxicity against human Leukemia cells by SRB assay; type: functional
HCT-15 = assay: Cytotoxicity against human HCT15 cells by SRB assay; type: functional
[9] = Cytotoxicity against human ovarian cancer cells by SRB assay; type: functional; settings: Cancer cell lines
PC-3 = assay: Cytotoxicity against human PC3 cells by SRB assay; type: functional
MOLT-4 = assay: Cytotoxicity against human MOLT4 cells by SRB assay; type: functional
NCI-H522 = assay: Cytotoxicity against human NCI-H522 cells by SRB assay; type: functional
[10] = Cytotoxicity against human prostate cancer cells by SRB assay; type: functional; settings: Cancer cell lines
SF-295 = assay: Cytotoxicity against human SF295 cells by SRB assay; type: functional
Malme-3M = assay: Cytotoxicity against human MALME-3M cells by SRB assay; type: functional
[11] = Cytotoxicity against human Colon cancer cells by SRB assay; type: functional; settings: Cancer cell lines

SMILES: CC(=O)OC[C@H]1O[C@@H](O[C@@H]2C[C@H]3C(C)(C)[C@H](OC(C)=O)CC[C@]3(C)[C@H]3CC[C@@H]4[C@]5(CC[C@@]4(C)[C@@]32C)O[C@@H]([C@H](O)C(C)(C)O)C[C@@H]5C)[C@H](O)[C@@H](O)[C@@H]1O
- GI50 (MDA-MB-435): 8.32 µM
- GI50 (OVCAR-8): 9.33 µM
- GI50 [1]: 8.71 µM
- GI50 (COLO 205): 4.07 µM
- TGI (COLO 205): 14.3 µM
- GI50 (UACC-62): 6.31 µM
- GI50 (SK-MEL-2): 6.03 µM
- GI50 (K562): 4.47 µM
- GI50 (SW-620): 10.5 µM
- TGI (SW-620): 22.9 µM
- GI50 (SNB-19): 12.6 µM
- GI50 (CCRF-CEM): 3.16 µM
- GI50 [2]: 9.33 µM
- GI50 (A549): 5.13 µM
- GI50 (HCC 2998): 3.63 µM
- TGI (HCC 2998): 15.9 µM
- TGI [3]: 21.3 µM
- GI50 (EKVX): 9.55 µM
- GI50 (BT-549): 12 µM
- GI50 [4]: 2.95 µM
- GI50 (NCI-H460): 6.61 µM
- GI50 (NCI-H322M): 1.7 µM
- GI50 (MCF7): 1.07 µM
- GI50 (NCI-H226): 10.7 µM
- GI50 (OVCAR-3): 7.08 µM
- GI50 (MDA-MB-231): 10.2 µM
- GI50 (SNB-75): 5.13 µM
- TGI [5]: 22.2 µM
- GI50 (DU-145): 10.7 µM
- GI50 (T47D): 5.62 µM
- GI50 (HOP-62): 14.1 µM
- GI50 (UO-31): 7.76 µM
- GI50 (HOP-92): 10 µM
- GI50 (SF-268): 9.33 µM
- GI50 (HT-29): 1.82 µM
- TGI (HT-29): 4.3 µM
- GI50 (U-251): 10.7 µM
- TGI (NSCLC): 21.8 µM
- GI50 (UACC-257): 11.5 µM
- GI50 [6]: 16.2 µM
- TGI [7]: 20.5 µM
- GI50 (SR): 3.09 µM
- GI50 (ACHN): 9.33 µM
- GI50 (SN12C): 11.2 µM
- GI50 (NCI-H23): 12.9 µM
- GI50 (RPMI-8226): 3.39 µM
- GI50 (HCT-116): 3.8 µM
- TGI (HCT-116): 15.1 µM
- GI50 (A498): 11.7 µM
- GI50 (RXF 393): 4.07 µM
- TGI [8]: 20.7 µM
- GI50 (IGROV-1): 9.55 µM
- GI50 (OVCAR-5): 5.13 µM
- GI50 (M14): 5.01 µM
- GI50 (SK-MEL-5): 10.7 µM
- GI50 (MDA-N): 7.08 µM
- GI50 (KM12): 2 µM
- TGI (KM12): 7.7 µM
- GI50 (SK-MEL-28): 10.2 µM
- GI50 (LOX IMVI): 3.63 µM
- GI50 (CAKI-1): 25.7 µM
- GI50 (SK-OV-3): 7.94 µM
- GI50 (OVCAR-4): 3.39 µM
- TGI (Leukemia cell): 17.3 µM
- GI50 (HCT-15): 2.19 µM
- TGI (HCT-15): 5.9 µM
- TGI [9]: 20.1 µM
- GI50 (PC-3): 3.8 µM
- GI50 (MOLT-4): 3.16 µM
- GI50 (NCI-H522): 7.08 µM
- TGI [10]: 18.5 µM
- GI50 (SF-295): 6.46 µM
- GI50 (Malme-3M): 10.2 µM
- TGI [11]: 12.3 µM

SMILES: C=C1[C@@H](O)C[C@@]23CC[C@@H]4[C@@]5(C)CC[C@@H](OC(C)=O)C(C)(C)[C@@H]5C[C@@H](O[C@@H]5O[C@H](COC(C)=O)[C@@H](O)[C@H](O)[C@H]5O)[C@@]4(C)C2=CC[C@H]3[C@H]1C
- GI50 (MDA-MB-435): 4.79 µM
- GI50 (OVCAR-8): 6.61 µM
- GI50 [1]: 5.25 µM
- GI50 (COLO 205): 1.78 µM
- TGI (COLO 205): 3.3 µM
- GI50 (UACC-62): 7.08 µM
- GI50 (SK-MEL-2): 2.09 µM
- GI50 (K562): 3.09 µM
- GI50 (SW-620): 7.24 µM
- TGI (SW-620): 24.2 µM
- GI50 (SNB-19): 5.5 µM
- GI50 (CCRF-CEM): 2.57 µM
- GI50 [2]: 4.9 µM
- GI50 (A549): 4.79 µM
- GI50 (HCC 2998): 1.58 µM
- TGI (HCC 2998): 3.5 µM
- TGI [3]: 21.5 µM
- GI50 (EKVX): 10 µM
- GI50 (BT-549): 11.5 µM
- GI50 [4]: 2.75 µM
- GI50 (NCI-H460): 4.27 µM
- GI50 (NCI-H322M): 12.9 µM
- GI50 (MCF7): 1.51 µM
- GI50 (NCI-H226): 6.03 µM
- GI50 (OVCAR-3): 2.82 µM
- GI50 (MDA-MB-231): 7.76 µM
- GI50 (SNB-75): 2.19 µM
- TGI [5]: 16.9 µM
- GI50 (DU-145): 10.7 µM
- GI50 (T47D): 7.24 µM
- GI50 (HOP-62): 12.9 µM
- GI50 (UO-31): 13.8 µM
- GI50 (HOP-92): 10.7 µM
- GI50 (SF-268): 6.61 µM
- GI50 (HT-29): 2.34 µM
- TGI (HT-29): 5.9 µM
- GI50 (U-251): 2.82 µM
- TGI (NSCLC): 23.4 µM
- GI50 (UACC-257): 10.2 µM
- GI50 [6]: 17.8 µM
- TGI [7]: 22.1 µM
- GI50 (SR): 2.34 µM
- GI50 (ACHN): 7.08 µM
- GI50 (SN12C): 6.03 µM
- GI50 (NCI-H23): 9.55 µM
- GI50 (RPMI-8226): 2.95 µM
- GI50 (HCT-116): 3.47 µM
- TGI (HCT-116): 9.8 µM
- GI50 (A498): 14.8 µM
- GI50 (RXF 393): 3.98 µM
- TGI [8]: 19.1 µM
- GI50 (IGROV-1): 4.79 µM
- GI50 (OVCAR-5): 2.09 µM
- GI50 (M14): 3.55 µM
- GI50 (SK-MEL-5): 6.03 µM
- GI50 (MDA-N): 5.13 µM
- GI50 (KM12): 1.55 µM
- TGI (KM12): 4.8 µM
- GI50 (SK-MEL-28): 8.32 µM
- GI50 (LOX IMVI): 3.98 µM
- GI50 (CAKI-1): 13.2 µM
- GI50 (SK-OV-3): 11.7 µM
- GI50 (OVCAR-4): 3.98 µM
- TGI (Leukemia cell): 8.7 µM
- GI50 (HCT-15): 11.5 µM
- TGI (HCT-15): 27.5 µM
- TGI [9]: 17.6 µM
- GI50 (PC-3): 3.47 µM
- GI50 (MOLT-4): 1.95 µM
- GI50 (NCI-H522): 7.41 µM
- TGI [10]: 18.3 µM
- GI50 (SF-295): 4.17 µM
- GI50 (Malme-3M): 11.5 µM
- TGI [11]: 11.3 µM
